One may read the Kd as the equilibrium constant for the complex coming apart.

Consider four molecules from patent US20220055989A1, “CONDENSED PYRROLES AS NOVEL BROMODOMAIN INHIBITORS” (ALBERT LUDWING UNIVERSITÄT FREIBURG, priority 2018, published 2022).

Common to all, as to format: binding
Assay [1] deals with T1, BRD2(1) (Homo sapiens, UniProt P25440).
T1 construct: T7 phage strains displaying bromodomains were grown in parallel; made in house; host or cells: T7 phage grown in an E. coli host derived from the BL21 strain
Put plainly: BROMOscan Kd determination BRD2(1). Here is the method:
(§1) Bromodomain profiling was carried out on the basis of BROMOscan™. This platform accounted for the indirect determination of the dissociation constants between 19 bromodomains and the compound of formula (13), by binding competition against a reference immobilized ligand. Compounds that bind the bromodomain prevent its binding to the immobilized ligand thus reducing the amount of protein captured. […] Hits are identified by measuring the amount of bromodomain captured in test versus control samples. Bromodomain assays for Kd determination: T7 phage strains displaying bromodomains were grown in parallel in 24-well blocks in an E. coli host derived from the BL21 strain. E. coli were grown to log-phase and infected with T7 phage from a frozen stock (multiplicity of infection=0.4) and incubated with shaking at 32° C. until lysis (90-150 minutes). The lysates were centrifuged (5,000×g) and filtered (0.2 μm) to remove cell debris. […] Kds were determined using an 11-point 3-fold compound dilution series with one DMSO control point. […] The bromodomain concentration in the eluates was measured by qPCR. […] Most Kds were determined using a compound top concentration=10,000 nM. […] Binding Constants (Kds): Binding constants (Kds) were calculated with a standard dose-response curve using the Hill equation: The Hill Slope was set to −1. […]

Assay [2] has as its target T2, BRD3(1) (Homo sapiens, UniProt Q15059).
T2 construct: T7 phage strains displaying bromodomains were grown in parallel; made in house; host or cells: T7 phage grown in an E. coli host derived from the BL21 strain
Description: BROMOscan Kd determination BRD3(1). Here is the method:
as §1

Assay [3] deals with T3, BRD3(2) (Homo sapiens, UniProt Q15059).
T3 construct: T7 phage strains displaying bromodomains were grown in parallel; made in house; host or cells: T7 phage grown in an E. coli host derived from the BL21 strain
Put plainly: BROMOscan Kd determination BRD3(2). On the procedure:
as §1

Assay [4] deals with T4, BRD4(2) (Homo sapiens, UniProt O60885).
T4 construct: T7 phage strains displaying bromodomains were grown; host or cells: T7 phage in E. coli derived from BL21
Put plainly: BROMOscan Kd determination BRD4(2). On the procedure: as §1

Assay [5] has as its target T5, BRDT(2) (Homo sapiens, UniProt Q58F21).
T5 construct: T7 phage strains displaying bromodomains were grown; host or cells: T7 phage in E. coli derived from BL21
Put plainly: BROMOscan Kd determination BRDT(2). Here is the method:
as §1

Assay [6] concerns bromodomains. Put plainly: Bromodomain profiling (BROMOscan), summary over the panel. The following applies: compared to the compound of formula (23); bromodomains of Table 3. Here is the method: Bromodomain profiling was carried out on the basis of BROMOscan™. This platform accounted for the indirect determination of the dissociation constants between 19 bromodomains and the compound of formula (13), by binding competition against a reference immobilized ligand.
Compounds that bind the bromodomain prevent its binding to the immobilized ligand thus reducing the amount of protein captured. […] Hits are identified by measuring the amount of bromodomain captured in test versus control samples.
Bromodomain assays for Kd determination: T7 phage strains displaying bromodomains were grown in parallel in 24-well blocks in an E. coli host derived from the BL21 strain. E. coli were grown to log-phase and infected with T7 phage from a frozen stock (multiplicity of infection=0.4) and incubated with shaking at 32° C. until lysis (90-150 minutes). The lysates were centrifuged (5,000×g) and filtered (0.2 μm) to remove cell debris. […] Kds were determined using an 11-point 3-fold compound dilution series with one DMSO control point. […] The bromodomain concentration in the eluates was measured by qPCR.
Bromodomain assays for % Ctrl determination: T7 phage strains displaying bromodomains were grown in parallel in 24-well blocks in an E. coli host derived from the BL21 strain. […] The bromodomain concentration in the eluates was measured by qPCR.

Assay [7] addresses T6, BRD4(short-iso.) (Homo sapiens, UniProt O60885).
T6 construct: host or cells: T7 phage in E. coli derived from BL21
Description: BROMOscan Kd determination BRD4(short-iso.). Here is the method: as §1

T3 sequence (Q15059 306-415 limits assumed): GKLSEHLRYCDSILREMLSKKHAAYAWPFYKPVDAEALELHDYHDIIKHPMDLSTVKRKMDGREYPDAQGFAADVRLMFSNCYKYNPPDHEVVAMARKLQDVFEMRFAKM
T1 sequence (P25440 74-180 limits assumed): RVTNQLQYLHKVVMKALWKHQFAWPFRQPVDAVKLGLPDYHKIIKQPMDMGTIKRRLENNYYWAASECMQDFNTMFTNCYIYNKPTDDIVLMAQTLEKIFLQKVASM
T2 sequence (Q15059 34-140 limits assumed): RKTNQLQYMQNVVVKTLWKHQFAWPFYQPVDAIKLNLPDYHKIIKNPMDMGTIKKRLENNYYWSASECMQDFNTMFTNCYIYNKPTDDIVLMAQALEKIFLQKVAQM

Take `COc1ccc(S(=O)(=O)N2CCOCC2)cc1NC(=O)c1[nH]c(C)c2c1CCCCC2=O` [Compound 13, N-(2-methoxy-5-(morpholinosulfonyl)phenyl)-3-methyl-4-oxo-2,4,5,6,7,8-hexahydrocyclohepta[c]pyrrole-1-carboxamide]: the dissociation constant Kd in assay [1] came out at 45 nM; in assay [2], 100 nM; in assay [3] it was 140 nM; in assay [4], 220 nM; in assay [5] it was 1000 nM.
In the case of `CCCCc1[nH]c(-c2cc(N)ccc2Cl)c2c1C(=O)CCCC2` [Compound 27, 1-(5-Amino-2-chlorophenyl)-3-butyl-5,6,7,8-tetrahydrocyclohepta[c]pyrrol-4(2H)-one], the “selectivity for certain bromodomains evaluated” value in assay [6] is “higher selectivity for certain bromodomains”.
On to `Cc1[nH]c(-c2cc(N)ccc2Cl)c2c1C(=O)CCCC2` [Compound 23], for which the dissociation constant Kd in assay [1] worked out at 130 nM; in assay [2], 170 nM; in assay [3], 330 nM; in assay [4], 270 nM; in assay [7], 180 nM; in assay [5], 620 nM.
In the case of `CCCc1[nH]c(-c2cc(N)ccc2Cl)c2c1C(=O)CCCC2` [Compound 26, 1-(5-Amino-2-chlorophenyl)-3-propyl-5,6,7,8-tetrahydrocyclohepta[c]pyrrol-4(2H)-one], the “selectivity for certain bromodomains evaluated” value in assay [6] is listed as “higher selectivity for certain bromodomains”.
